{"source": "the supplement of paper PMC7017272", "details_in_all_cases": "treatment time: 3 days", "key": {"UT-SCC-44 [1]": {"system": "UT-SCC-44", "assay": "drug sensitivity score (DSS); higher = more sensitive; extreme values may be limits of the assay", "outline": "(§1)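 Viability was read with CellTiter-Glo 2.0 luminescence and scaled against vehicle (0.1% DMSO) and cell-killing control wells. The assay used HPV-negative HNSCC cell lines at 500 cells/well in 384-well plates, grown on plastic, on Matrigel or Myogel coatings (500 µg/mL), or embedded in Matrigel or Myogel plus rat collagen I, and treated for 3 days at five 10-fold concentrations. IC50, maximal inhibition and drug sensitivity score were derived from percent-inhibition dose–response curves fitted in the FIMM pipeline.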"}, "UT-SCC-73 [2]": {"system": "UT-SCC-73", "assay": "drug sensitivity score (DSS); higher = more sensitive; extreme values may be limits of the assay", "outline": "as §1"}, "UT-SCC-81": {"system": "UT-SCC-81", "assay": "drug sensitivity score (DSS); higher = more sensitive; extreme values may be limits of the assay", "outline": "as §1"}, "UT-SCC-8": {"system": "UT-SCC-8", "assay": "drug sensitivity score (DSS); higher = more sensitive; extreme values may be limits of the assay", "outline": "as §1"}, "UT-SCC-106A": {"system": "UT-SCC-106A", "assay": "relative IC50 (midpoint of the fitted curve; maximal inhibition may be below 50%); higher = less potent", "outline": "as §1"}, "UT-SCC-40": {"system": "UT-SCC-40", "assay": "relative IC50 (midpoint of the fitted curve; maximal inhibition may be below 50%); higher = less potent", "outline": "as §1"}, "UT-SCC-42B": {"system": "UT-SCC-42B", "assay": "relative IC50 (midpoint of the fitted curve; maximal inhibition may be below 50%); higher = less potent", "outline": "as §1"}, "UT-SCC-44 [3]": {"system": "UT-SCC-44", "assay": "relative IC50 (midpoint of the fitted curve; maximal inhibition may be below 50%); higher = less potent", "outline": "as §1"}, "UT-SCC-73 [4]": {"system": "UT-SCC-73", "assay": "relative IC50 (midpoint of the fitted curve; maximal inhibition may be below 50%); higher = less potent", "outline": "as §1"}, "UT-SCC-24A": {"system": "UT-SCC-24A", "assay": "relative IC50 (midpoint of the fitted curve; maximal inhibition may be below 50%); higher = less potent", "experimental": "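HNSCC cell lines (500 cells/well, 384-well) were cultured on plastic, on top of (2D) or embedded (3D) in Matrigel or human leiomyoma matrix Myogel (500 ug/mL; Myogel 3D mixed with rat collagen I). Cells were treated for 3 days with 5 ten-fold concentrations of each drug, and viability was read by CellTiter-Glo. Viability was normalised to DMSO (0% inhibition) and 100 uM benzethonium chloride (100% inhibition) controls and fitted with the FIMM DSRT pipeline to give IC50 (nM), maximal % inhibition and the drug sensitivity score (DSS). Suffixes _1/_2/_3 on drug names are replicates.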"}, "[5]": {"details": "culture condition: embedded in Myogel + collagen I"}, "[6]": {"details": "culture condition: on top of Matrigel"}, "[7]": {"details": "culture condition: on top of Myogel"}, "[8]": {"details": "culture condition: plastic 2D (no matrix)"}, "[9]": {"details": "culture condition: embedded in Matrigel"}}, "note": "± gives the standard deviation of the averaged measurements."}
{"smiles": "COc1cc(F)c(F)c(Nc2ccc(I)cc2F)c1NS(=O)(=O)C1(C[C@H](O)CO)CC1", "note": "[Refametinib]", "values": [{"measurement": "drug sensitivity score", "setting": "UT-SCC-44 [1]; [5]", "value": "8.1 ± 2.3", "unit": "DSS"}, {"measurement": "drug sensitivity score", "setting": "UT-SCC-44 [1]; [6]", "value": "18.2 ± 2.5", "unit": "DSS"}, {"measurement": "drug sensitivity score", "setting": "UT-SCC-44 [1]; [7]", "value": "7.4 ± 1.2", "unit": "DSS"}, {"measurement": "drug sensitivity score", "setting": "UT-SCC-44 [1]; [8]", "value": "15.3 ± 0.64", "unit": "DSS"}, {"measurement": "drug sensitivity score", "setting": "UT-SCC-73 [2]; [9]", "value": "25 ± 1.3", "unit": "DSS"}, {"measurement": "drug sensitivity score", "setting": "UT-SCC-73 [2]; [5]", "value": "16 ± 3.4", "unit": "DSS"}, {"measurement": "drug sensitivity score", "setting": "UT-SCC-73 [2]; [6]", "value": "24 ± 0.8", "unit": "DSS"}, {"measurement": "drug sensitivity score", "setting": "UT-SCC-73 [2]; [7]", "value": "15.1 ± 1.1", "unit": "DSS"}, {"measurement": "drug sensitivity score", "setting": "UT-SCC-73 [2]; [8]", "value": "20 ± 1.4", "unit": "DSS"}, {"measurement": "drug sensitivity score", "setting": "UT-SCC-81; [9]", "value": "29.8 ± 2", "unit": "DSS"}, {"measurement": "drug sensitivity score", "setting": "UT-SCC-81; [5]", "value": "5.87 ± 0.35", "unit": "DSS"}, {"measurement": "drug sensitivity score", "setting": "UT-SCC-81; [6]", "value": "21.1 ± 1.4", "unit": "DSS"}, {"measurement": "drug sensitivity score", "setting": "UT-SCC-81; [7]", "value": "5.53 ± 1.2", "unit": "DSS"}, {"measurement": "drug sensitivity score", "setting": "UT-SCC-81; [8]", "value": "8.8 ± 0.96", "unit": "DSS"}, {"measurement": "drug sensitivity score", "setting": "UT-SCC-8; [9]", "value": "15.7 ± 1.7", "unit": "DSS"}, {"measurement": "drug sensitivity score", "setting": "UT-SCC-8; [5]", "value": "6.63 ± 3.1", "unit": "DSS"}, {"measurement": "drug sensitivity score", "setting": "UT-SCC-8; [6]", "value": "12.5 ± 1.5", "unit": "DSS"}, {"measurement": "drug sensitivity score", "setting": "UT-SCC-8; [7]", "value": "10.3 ± 2", "unit": "DSS"}, {"measurement": "drug sensitivity score", "setting": "UT-SCC-8; [8]", "value": "10.9 ± 2.8", "unit": "DSS"}, {"measurement": "relative IC50", "setting": "UT-SCC-106A; [9]", "value": 15.2, "unit": "nM"}, {"measurement": "relative IC50", "setting": "UT-SCC-106A; [6]", "value": 15.5, "unit": "nM"}, {"measurement": "relative IC50", "setting": "UT-SCC-106A; [7]", "value": 498, "unit": "nM"}, {"measurement": "relative IC50", "setting": "UT-SCC-106A; [8]", "value": 25.7, "unit": "nM"}, {"measurement": "relative IC50", "setting": "UT-SCC-40; [9]", "value": 15.3, "unit": "nM"}, {"measurement": "relative IC50", "setting": "UT-SCC-40; [5]", "value": 118, "unit": "nM"}, {"measurement": "relative IC50", "setting": "UT-SCC-40; [6]", "value": 33.5, "unit": "nM"}, {"measurement": "relative IC50", "setting": "UT-SCC-40; [7]", "value": 83.3, "unit": "nM"}, {"measurement": "relative IC50", "setting": "UT-SCC-40; [8]", "value": 111, "unit": "nM"}, {"measurement": "relative IC50", "setting": "UT-SCC-42B; [9]", "value": 16.6, "unit": "nM"}, {"measurement": "relative IC50", "setting": "UT-SCC-42B; [6]", "value": 79.5, "unit": "nM"}, {"measurement": "relative IC50", "setting": "UT-SCC-42B; [7]", "value": 757, "unit": "nM"}, {"measurement": "relative IC50", "setting": "UT-SCC-42B; [8]", "value": 218, "unit": "nM"}, {"measurement": "relative IC50", "setting": "UT-SCC-44 [3]; [9]", "value": 56.2, "unit": "nM"}, {"measurement": "relative IC50", "setting": "UT-SCC-44 [3]; [5]", "value": 417, "unit": "nM"}, {"measurement": "relative IC50", "setting": "UT-SCC-44 [3]; [6]", "value": 58.4, "unit": "nM"}, {"measurement": "relative IC50", "setting": "UT-SCC-44 [3]; [7]", "value": 569, "unit": "nM"}, {"measurement": "relative IC50", "setting": "UT-SCC-44 [3]; [8]", "value": 61.7, "unit": "nM"}, {"measurement": "relative IC50", "setting": "UT-SCC-73 [4]; [9]", "value": 38.5, "unit": "nM"}, {"measurement": "relative IC50", "setting": "UT-SCC-73 [4]; [6]", "value": 31.8, "unit": "nM"}, {"measurement": "relative IC50", "setting": "UT-SCC-73 [4]; [7]", "value": 132, "unit": "nM"}, {"measurement": "relative IC50", "setting": "UT-SCC-73 [4]; [8]", "value": 64.4, "unit": "nM"}, {"measurement": "relative IC50", "setting": "UT-SCC-24A; [9]", "value": 3.14, "unit": "nM"}, {"measurement": "relative IC50", "setting": "UT-SCC-24A; [6]", "value": 8.76, "unit": "nM"}, {"measurement": "relative IC50", "setting": "UT-SCC-24A; [8]", "value": 9.97, "unit": "nM"}]}
